Assays:
Details in all cases: treatment: drug alone; 5 days
A498 [1] = experiment: GI50, drug alone; higher = less potent
Description: (§1)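 Primary HTS: 8 RCC cell lines treated with 8 doses (up to 10 uM) of each library drug alone for 5 days; viability read by CellTiter-Glo and normalised to DMSO. GI50 was fitted with XLfit (4-parameter), AUC is the area under the dose-response curve, and minimum viability is the lowest fraction of DMSO viability across doses.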

769-P [2] = experiment: GI50, drug alone; higher = less potent
Description: as §1

TK-10 [3] = experiment: GI50, drug alone; higher = less potent
Description: as §1

786-O [4] = experiment: GI50, drug alone; higher = less potent
Description: as §1

ACHN [5] = experiment: GI50, drug alone; higher = less potent
Description: as §1

SN12C [6] = experiment: GI50, drug alone; higher = less potent
Description: as §1

UO-31 [7] = experiment: GI50, drug alone; higher = less potent
Description: as §1

CAKI-1 [8] = experiment: GI50, drug alone; higher = less potent
Description: as §1

A498 [9] = experiment: AUC of dose-response viability curve, drug alone (arbitrary (AUC of normalised viability)); higher = less growth inhibition
Description: as §1

769-P [10] = experiment: as above
Description: as §1

TK-10 [11] = experiment: as above
Description: as §1

786-O [12] = experiment: as above
Description: as §1

ACHN [13] = experiment: as above
Description: as §1

SN12C [14] = experiment: as above
Description: as §1

UO-31 [15] = experiment: as above
Description: as §1

CAKI-1 [16] = experiment: as above
Description: as §1

A498 [17] = experiment: minimum viability across doses, drug alone, relative to DMSO (fraction); higher = less growth inhibition
Description: as §1

769-P [18] = experiment: as above
Description: as §1

TK-10 [19] = experiment: as above
Description: as §1

786-O [20] = experiment: as above
Description: as §1

ACHN [21] = experiment: as above
Description: as §1

SN12C [22] = experiment: as above
Description: as §1

UO-31 [23] = experiment: as above
Description: as §1

CAKI-1 [24] = experiment: as above
Description: as §1

Row | Structure (SMILES) | GI50, drug alone (A498 [1]) | GI50, drug alone (769-P [2]) | GI50, drug alone (TK-10 [3]) | GI50, drug alone (786-O [4]) | GI50, drug alone (ACHN [5]) | GI50, drug alone (SN12C [6]) | GI50, drug alone (UO-31 [7]) | GI50, drug alone (CAKI-1 [8]) | AUC of dose-response viability curve (A498 [9]) | AUC of dose-response viability curve (769-P [10]) | AUC of dose-response viability curve (TK-10 [11]) | AUC of dose-response viability curve (786-O [12]) | AUC of dose-response viability curve (ACHN [13]) | AUC of dose-response viability curve (SN12C [14]) | AUC of dose-response viability curve (UO-31 [15]) | AUC of dose-response viability curve (CAKI-1 [16]) | minimum viability across doses (A498 [17]) | minimum viability across doses (769-P [18]) | minimum viability across doses (TK-10 [19]) | minimum viability across doses (786-O [20]) | minimum viability across doses (ACHN [21]) | minimum viability across doses (SN12C [22]) | minimum viability across doses (UO-31 [23]) | minimum viability across doses (CAKI-1 [24])
1 | O=C(NOC[C@H](O)CO)c1ccc(F)c(F)c1Nc1ccc(I)cc1F | 3.71 µM | 928 nM | 0.848 µM | 0.221 µM | 857 nM | 2.34 µM | 3.24 µM | 0.32 µM | 2.54 | 2.27 | 2.1 | 1.88 | 2.15 | 2.31 | 2.63 | 1.95 | 0.455 | 0.282 | 0.348 | 0.373 | 0.359 | 0.389 | 0.257 | 0.161
2 | COc1cccc(-c2cc(=O)c3ccccc3o2)c1N | > 10 µM | > 10000 nM | > 10 µM | > 10 µM | > 10000 nM | > 10 µM | > 10 µM | > 10 µM | 4.28 | 3.39 | 3.09 | 2.79 | 3.35 | 3.4 | 5.36 | 3.19 | 1.03 | 0.903 | 0.817 | 0.69 | 0.861 | 0.873 | 1.36 | 0.83
3 | O=C1NCCc2[nH]c(-c3ccncc3)cc21 | 3.53 µM | > 10000 nM | 3.62 µM | 0.539 µM | 1670 nM | 3.68 µM | 2.46 µM | 4.96 µM | 3.22 | 3.24 | 2.88 | 2.22 | 2.7 | 3.27 | 3.43 | 3.31 | 0.0125 | 0.75 | 0.188 | 0.00414 | 0.0193 | 0.0279 | 0.00654 | 0.12
4 | Cc1[nH]c(/C=C2\C(=O)Nc3ccc(S(=O)(=O)Cc4c(Cl)cccc4Cl)cc32)c(C)c1C(=O)N1CCC[C@@H]1CN1CCCC1 | 8.15 µM | 4020 nM | 4.44 µM | 4.16 µM | 3830 nM | 4.02 µM | > 10 µM | 3.83 µM | 3.88 | 2.89 | 3.12 | 2.86 | 3.18 | 2.93 | 4.41 | 3.17 | 0.0127 | 0.00582 | 0.00282 | 0.0112 | 0.00233 | 0.00551 | 0.0156 | 0.00618
5 | CC(=O)c1c(C)c2cnc(Nc3ccc(N4CCNCC4)cn3)nc2n(C2CCCC2)c1=O.Cl | > 10 µM | 659 nM | 1.44 µM | 3.88 µM | 360 nM | 7.21 µM | > 10 µM | 0.811 µM | 4.74 | 2.31 | 2.43 | 2.8 | 2.04 | 3.17 | 4.32 | 2.44 | 0.644 | 0.0631 | 0.185 | 0.298 | 0.136 | 0.427 | 0.549 | 0.123
